{"source": "patent US7098216B2", "about": "“Thiazolopyrimidines useful as TNFα inhibitors” (The Regents of the University of California, priority 1999, dated 2006)", "key": {"[1]": {"test_system": "TNFα production in human monocytes", "experiment": "Inhibition of LPS-induced TNFα production in human monocytes (ELISA)", "format": "cell-based", "conditions": "Monocyte", "experimental": "(§1) Peripheral blood mononuclear cells were isolated from normal human blood on Hypaque-Ficoll density gradients. 100 μl aliquots of monocytes were placed onto 96 well microtiter plates at a density of […] in RPMI-1640 medium containing 10% autologous plasma. After incubation for 24 hrs., various concentrations of the test compound in DMSO were added to the plated cells in a volume of 100 μl and incubated for 1 hr. After incubation, […] of LPS was added to each well.\n(§2) Eighteen hours after exposure of the plated cells to LPS, 100 μl of medium was collected from each well and assayed (by ELISA, R&D Systems) for release of IL-1 and TNFα, using recombinant human TNF as a standard (n=5). The sensitivity of the assay ranged from 10–100 pg/ml."}, "[2]": {"test_system": "IL-1β production by human monocytes", "experiment": "Inhibition of LPS-induced IL-1β production in human monocytes (ELISA)", "format": "cell-based", "conditions": "Monocyte; human monocytes stimulated with LPS (FIG. 2); read-out: 50% inhibitory dose, IL-1 production", "experimental": "as §1, §2\nFIG. 2 summarizes the effects of 8b and 8a on the production of IL-1β by human monocytes stimulated with LPS, under the same conditions used for the TNFα study."}, "Jurkat cell line": {"test_system": "Jurkat cell line", "experiment": "Jurkat cell growth, MTT assay", "format": "cell-based, human", "conditions": "concentration below 50 μM, 72 h, MTT (FIG. 3)", "experimental": "In this experiment, cells of the continuous human lymphoblastoid Jurkat cell line were suspended at 1×10^5/ml in complete medium containing various amounts of 8a and 8b dissolved in DMSO. Seventy-two hours later the cell density was assessed using the MTT assay, which measures the reduction of a tetrazolium dye. The cell densities were compared to control cultures lacking any additional drugs."}, "[3]": {"experiment": "Acute toxicity testing in ICR mice, IP", "format": "in vivo", "conditions": "five daily IP injections at 100 mg/kg, 30 days of observation", "experimental": "ICR mice (ca. 20 g) were injected IP for 5 days with 50 mg/kg, and 100 mg/kg of each of 8a and 8b dispersed in aqueous hydroxypropyl β-cyclodextrin (50% w/v)."}, "[4]": {"test_system": "TNFα plasma concentration", "experiment": "Oral 8a dose response on LPS-induced plasma TNFα in mice", "format": "in vivo, ICR mice", "experimental": "ICR mice were dosed orally at 25, 50 and 100 mg/kg of 8a in cyclodextrin, prepared as in Example 7. After 1 hr., each mouse was injected with E. coli LPS (1 μg/mouse). Two hours later, 250 μl samples of blood were obtained by retro-orbital bleeding without anesthetization. The blood was heparinized, centrifuged for 10 min. at 10 K rpm (4° C.) and TNFα determined by ELISA. […] The two bars at the top of the figure show the baseline levels of TNFα in the mouse plasma, which were undetectable, and the effects of 8a administered alone, which were negligible."}, "TNFα in the plasma": {"test_system": "TNFα in the plasma", "experiment": "Time course of TNFα inhibition after oral 8a in LPS-injected mice", "format": "in vivo, ICR mice", "conditions": "100 mg/kg by gavage, LPS 24 hours later (FIG. 6)", "experimental": "The purpose of these experiments was to determine how long after administration of compound 8a by gavage could its inhibitory effects on LPS-induced TNFα production be detected. Accordingly, all the ICR in this instance were given 8a at a dosage of 100 mg/kg by gavage. Then at 1, 4, 10, and 24 hours later, each animal received 1 μg/ml IP LPS, and two hours later (i.e., at 3, 6, 12, and 26 hours), blood was removed for TNFα ELISA."}, "adjuvant arthritis": {"test_system": "adjuvant arthritis", "experiment": "Adjuvant arthritis in Lewis rats", "format": "in vivo", "conditions": "100 mg/kg by gavage daily", "experimental": "Since TNFα antagonists have shown considerable value in the treatment of rheumatoid arthritis, compound 8a was evaluated in an animal model that is TNFα dependent. Adjuvant arthritis is an acute inflammatory disease induced in certain rat strains by the administration of heat-killed mycobacteria dispersed in […]. The disease is manifest by severe joint swelling, mainly of the ankles and feet.\nTwo groups of seven Lewis rats each were immunized intradermally with 5 mg of heat-killed mycobacterium tuberculosis emulsified in incomplete Freund's adjuvant. One day later, one group of animals (N=7) received 100 mg/kg of 8a by gavage. Another group of animals received no treatment. The oral dosing was continued every day up to day 30. […] The mean arthritis score can vary from 0 to 4 for each limb, yielding a maximum score of 16. Note that the untreated animals (group 1) achieved a mean arthritis score of 10 on day 18. In contrast, the treated animals reach a mean arthritis score of 5, for 50% inhibition."}, "[5]": {"conditions": "human monocytes, LPS, 18 h, ELISA (FIG. 1), read-out: IC50, TNFα production"}}, "note": "Read-outs that look alike come from different tables or passages of the source.", "data": [{"smiles": "CCOC(=O)CCCn1c(=O)c2sc(N)nc2n(C)c1=O", "note": "[8a, Ethyl 4-[2-Amino-4-methyl-5,7-dioxothiazolo [4,5-d]pyrimidin-6-yl]-butanoate]", "values": [{"measurement": "IC50", "setting": "[1]; Homo sapiens, 18 h, read-out: IC50, TNFα production", "result": 676, "unit": "nM"}, {"measurement": "IC50", "setting": "[1]; Homo sapiens, read-out: TNF inhib. (IC50)", "result": 676, "unit": "nM"}, {"measurement": "IC50", "setting": "[2]", "result": "1000 to 3000", "unit": "nM"}, {"measurement": "growth inhibitory activity on Jurkat cells", "setting": "Jurkat cell line", "result": "neither 8b nor 8a had significant growth inhibitory activity"}, {"measurement": "weight change or lethargy", "setting": "[3]", "result": "no weight change or detectable lethargy"}, {"measurement": "effect on TNFα plasma concentration", "setting": "[4]; 25 mg/kg oral, LPS 1 h later, blood 2 h after LPS (FIG. 5)", "result": "significant inhibitory effect"}, {"measurement": "effect on TNFα plasma concentration", "setting": "[4]; 50 mg/kg oral, compared with 25 mg/kg (FIG. 5)", "result": "greater"}, {"measurement": "effect of 8a administered alone on plasma TNFα", "setting": "[4]; without LPS (FIG. 5)", "result": "negligible"}, {"measurement": "accumulation of TNFα in plasma of LPS-injected mice", "setting": "TNFα in the plasma", "result": "completely inhibited"}, {"measurement": "mean arthritis score", "setting": "adjuvant arthritis; maximum score 16, untreated 10 on day 18 (FIG. 7)", "result": 5}, {"measurement": "inhibition at 100 mg/kg", "setting": "adjuvant arthritis; Rattus norvegicus, po, versus untreated, read-out: inhibition of arthritis score", "result": 50, "unit": "%"}]}, {"smiles": "Fc1ccc(-c2ncn(CCCN3CCOCC3)c2-c2ccncc2)cc1", "note": "[SB-210313, reference compound]", "values": [{"measurement": "IC50", "setting": "[1]; [5]", "result": 1150, "unit": "nM"}]}, {"smiles": "COc1ccc(C2CNC(=O)C2)cc1OC1CCCC1", "note": "(stereo not shown) [rolipram, reference compound]", "values": [{"measurement": "IC50", "setting": "[1]; [5]", "result": 2500, "unit": "nM"}]}]}
